Experimental data as given in ChEMBL document CHEMBL1777708, “An expeditious access to 5-pyrimidinol derivatives from cyclic methylglyoxal diadducts, formation of argpyrimidines under physiological conditions and discovery of new CFTR inhibitors” (Eur J Med Chem, 2011).
Calls of active or inactive are those of the source. The rule behind the calls is not given here.

Tests used:
[1] = target: Cystic fibrosis transmembrane conductance regulator (Homo sapiens) (UniProt P13569); assay: Inhibition of wild type CFTR expressed in CHO cells by [125I]iodide efflux assay; assay type: cell-based
Cystic fibrosis transmembrane conductance regulator (Homo sapiens), sequence (P13569 whole entry, looked up): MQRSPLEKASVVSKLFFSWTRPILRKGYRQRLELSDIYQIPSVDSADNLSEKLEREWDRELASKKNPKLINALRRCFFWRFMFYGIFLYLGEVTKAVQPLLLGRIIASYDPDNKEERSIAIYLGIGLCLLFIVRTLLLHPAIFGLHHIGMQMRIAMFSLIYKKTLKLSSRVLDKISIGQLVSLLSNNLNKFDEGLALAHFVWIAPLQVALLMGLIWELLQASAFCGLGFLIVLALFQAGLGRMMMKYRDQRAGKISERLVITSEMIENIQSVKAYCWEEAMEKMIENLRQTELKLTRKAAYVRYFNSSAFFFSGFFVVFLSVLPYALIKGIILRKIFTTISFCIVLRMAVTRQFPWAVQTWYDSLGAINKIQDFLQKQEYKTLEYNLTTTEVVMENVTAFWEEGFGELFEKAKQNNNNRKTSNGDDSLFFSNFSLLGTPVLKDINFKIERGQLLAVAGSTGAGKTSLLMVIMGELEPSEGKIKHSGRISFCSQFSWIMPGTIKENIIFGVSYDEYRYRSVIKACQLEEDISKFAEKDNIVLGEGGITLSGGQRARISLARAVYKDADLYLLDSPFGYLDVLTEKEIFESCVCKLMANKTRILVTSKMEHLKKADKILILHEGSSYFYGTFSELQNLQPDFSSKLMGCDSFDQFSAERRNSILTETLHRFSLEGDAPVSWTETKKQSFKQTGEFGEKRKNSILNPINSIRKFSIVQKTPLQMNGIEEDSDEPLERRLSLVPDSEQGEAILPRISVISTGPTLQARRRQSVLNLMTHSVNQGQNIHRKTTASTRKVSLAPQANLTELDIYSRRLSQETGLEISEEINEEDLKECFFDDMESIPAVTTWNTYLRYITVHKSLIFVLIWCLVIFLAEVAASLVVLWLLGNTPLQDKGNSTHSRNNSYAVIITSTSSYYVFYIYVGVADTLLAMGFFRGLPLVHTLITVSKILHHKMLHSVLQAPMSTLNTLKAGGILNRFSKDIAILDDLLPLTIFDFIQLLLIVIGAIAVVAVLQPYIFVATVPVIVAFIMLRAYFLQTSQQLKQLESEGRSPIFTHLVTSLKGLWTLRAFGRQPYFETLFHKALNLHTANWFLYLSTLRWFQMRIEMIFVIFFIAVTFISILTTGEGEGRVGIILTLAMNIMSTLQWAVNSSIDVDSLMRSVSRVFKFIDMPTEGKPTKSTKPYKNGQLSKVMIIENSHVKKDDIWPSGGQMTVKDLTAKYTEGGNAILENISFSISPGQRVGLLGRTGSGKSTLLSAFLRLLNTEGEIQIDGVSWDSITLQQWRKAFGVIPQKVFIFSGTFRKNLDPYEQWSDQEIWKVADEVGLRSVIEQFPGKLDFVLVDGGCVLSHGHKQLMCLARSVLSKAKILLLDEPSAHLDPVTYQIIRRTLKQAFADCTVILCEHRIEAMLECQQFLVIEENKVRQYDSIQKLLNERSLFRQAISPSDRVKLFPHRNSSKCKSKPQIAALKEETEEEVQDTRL

[2] = Dissociation constant, pKa of the compound by spectrophotometry; assay type: physicochemical

inhibition [1]	pKa [2]	Structure (SMILES)
inactive	–	C[C@]1(C(=O)O)N=C2C=CC=CN2[C@](C)(O)[C@H]1O
inactive	–	C[C@]1(C(=O)O)N=C2C=CC=CN2[C@](C)(O)[C@@H]1O
–	4	Cc1nc2c3ccccc3cc[n+]2c(C)c1[O-]
